Laboratory results as given in patent US11001563B2, “SSAO inhibitor” (SHANDONG DANHONG PHARMACEUTICAL CO., LTD., priority 2017, dated 2021).

Assays:
[1] = system: CCl4-induced chronic liver fibrosis; assay: Oral CCl4-induced chronic liver fibrosis male C57BL/6 model; assay type: in vivo, C57BL/6 mice; conditions: oral daily for 28 days, in words
Procedure: The therapeutic effect of compounds on an oral CCl4-induced chronic liver fibrosis male C57BL/6 model was tested. Male C57BL/6 mice, 7-8 weeks old; Experimental method: Male C57BL/6 mice were orally administered from the day CCl4 was put for modeling, and administered daily. Continuous administration was conducted for 28 days. The animals were fasted for at least 6 hours on the next day after the last administration. Animal weight was measured during euthanasia and all animals were euthanized under the guidance of the KCl Animal Euthanasia SOP. Non-anticoagulant venous blood of mice was collected from the ocular venous plexus. The whole blood was allowed to stand at room temperature for 30 minutes, and centrifuged at 5000 rpm for 5 minutes, and the serum was separated and placed in a 1.5 ml EP tube and stored at -80° C. After the whole body of the animal was perfused with hypothermic saline, the liver was taken and subjected to tissue gross image acquisition. The left lobe of the liver was divided into 4 equal parts and put into 4 tissue cryotubes for liquid nitrogen freezing, and then transferred to -80 OC for storage. The rest of the liver tissue was fixed in 10% neutral formalin fixative. […] HE staining was subjected to double-blind score by two pathological readers, and the area of hepatic fibrosis was analyzed for sirius-red stained sections by digital pathology.

[2] = molecular target: CYP1A2 (Homo sapiens (Human), UniProt P05177); assay: Human liver microsomal CYP inhibition assay; assay type: in vitro ADME; conditions: human liver microsomes, 5-in-1 probe substrate
Sequence of CYP1A2 (P05177 whole entry): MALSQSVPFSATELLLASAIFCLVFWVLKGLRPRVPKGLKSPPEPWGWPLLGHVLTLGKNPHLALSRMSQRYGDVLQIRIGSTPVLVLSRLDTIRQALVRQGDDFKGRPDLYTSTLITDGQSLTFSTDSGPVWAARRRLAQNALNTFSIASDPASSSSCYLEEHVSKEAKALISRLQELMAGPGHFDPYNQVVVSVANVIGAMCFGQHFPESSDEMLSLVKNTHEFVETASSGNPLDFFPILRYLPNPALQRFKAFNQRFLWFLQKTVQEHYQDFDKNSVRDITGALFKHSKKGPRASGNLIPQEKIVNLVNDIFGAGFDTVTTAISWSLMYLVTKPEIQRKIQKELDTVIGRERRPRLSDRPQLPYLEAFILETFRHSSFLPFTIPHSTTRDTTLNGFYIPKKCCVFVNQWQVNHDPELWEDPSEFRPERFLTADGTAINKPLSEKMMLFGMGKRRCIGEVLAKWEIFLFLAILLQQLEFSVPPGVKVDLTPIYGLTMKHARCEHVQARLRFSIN
Procedure: (§1) The purpose of the study was to evaluate the inhibition of the test sample on human liver microsomal cytochrome P450 isozymes (CYP1A2, CYP2C9, CYP2C19, CYP2D6, and CYP3A4) by using the CYP isozyme 5-in-1 probe substrate.
(§2) Mixed human liver microsomes (HLM) were purchased from Corning Inc. (Steuben, N.Y., USA) or XenoTech, LLC. (Lenexa, Kans., USA) or other suppliers, and stored at the temperature below −70° C. prior to use.
(§3) A series of diluted test sample working solution were added to an incubation system containing cofactors of human liver microsomes, a probe substrate and a circulation system, and the control without a test substance but containing a solvent was used as enzyme activity control (100%). The concentration of the metabolite produced by the probe sample in the sample was determined by liquid chromatography-tandem mass spectrometry (LC-MS/MS). Non-linear regression analysis was performed on the concentration of the average percent activity of the test sample by using SigmaPlot (V.11). The IC50 value was calculated by a three-parameter or four-parameter recursive logarithmic equation.

[3] = molecular target: CYP2C19 (Homo sapiens (Human), UniProt P33261); assay: Human liver microsomal CYP inhibition assay; assay type: in vitro ADME; conditions: human liver microsomes, 5-in-1 probe substrate
Sequence of CYP2C19 (P33261 whole entry): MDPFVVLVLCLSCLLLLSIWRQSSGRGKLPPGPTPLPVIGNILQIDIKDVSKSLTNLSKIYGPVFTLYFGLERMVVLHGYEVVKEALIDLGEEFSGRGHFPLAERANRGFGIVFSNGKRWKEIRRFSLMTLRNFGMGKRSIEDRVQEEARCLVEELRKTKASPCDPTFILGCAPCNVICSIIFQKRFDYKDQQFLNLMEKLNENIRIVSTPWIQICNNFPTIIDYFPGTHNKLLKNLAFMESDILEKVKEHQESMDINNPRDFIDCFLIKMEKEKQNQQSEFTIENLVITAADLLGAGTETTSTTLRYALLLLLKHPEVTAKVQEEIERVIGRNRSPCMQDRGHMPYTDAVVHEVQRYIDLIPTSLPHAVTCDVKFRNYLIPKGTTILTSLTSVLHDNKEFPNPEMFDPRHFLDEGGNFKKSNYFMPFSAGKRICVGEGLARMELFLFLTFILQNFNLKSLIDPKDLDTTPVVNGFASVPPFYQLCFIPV
Procedure: as §1, §2, §3

[4] = molecular target: CYP2C9 (Homo sapiens (Human), UniProt P11712); assay: Human liver microsomal CYP inhibition assay; assay type: in vitro ADME; conditions: human liver microsomes, 5-in-1 probe substrate
Sequence of CYP2C9 (P11712 whole entry): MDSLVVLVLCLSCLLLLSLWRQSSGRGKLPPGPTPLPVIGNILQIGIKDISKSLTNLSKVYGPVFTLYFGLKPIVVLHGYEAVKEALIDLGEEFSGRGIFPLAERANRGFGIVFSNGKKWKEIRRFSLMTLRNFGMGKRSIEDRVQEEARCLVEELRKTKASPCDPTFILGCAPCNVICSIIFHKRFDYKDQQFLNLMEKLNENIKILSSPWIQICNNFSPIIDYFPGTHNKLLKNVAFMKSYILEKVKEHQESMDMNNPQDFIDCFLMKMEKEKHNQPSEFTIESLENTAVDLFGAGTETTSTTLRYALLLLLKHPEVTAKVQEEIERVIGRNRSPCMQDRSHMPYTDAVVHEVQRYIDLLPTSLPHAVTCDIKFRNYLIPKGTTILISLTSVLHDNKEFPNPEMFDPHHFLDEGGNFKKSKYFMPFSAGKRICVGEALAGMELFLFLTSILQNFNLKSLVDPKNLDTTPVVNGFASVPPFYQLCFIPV
Procedure: as §1, §2, §3

[5] = molecular target: CYP2D6 (Homo sapiens (Human), UniProt P10635); assay: Human liver microsomal CYP inhibition assay; assay type: in vitro ADME; conditions: human liver microsomes, 5-in-1 probe substrate
Sequence of CYP2D6 (P10635 whole entry): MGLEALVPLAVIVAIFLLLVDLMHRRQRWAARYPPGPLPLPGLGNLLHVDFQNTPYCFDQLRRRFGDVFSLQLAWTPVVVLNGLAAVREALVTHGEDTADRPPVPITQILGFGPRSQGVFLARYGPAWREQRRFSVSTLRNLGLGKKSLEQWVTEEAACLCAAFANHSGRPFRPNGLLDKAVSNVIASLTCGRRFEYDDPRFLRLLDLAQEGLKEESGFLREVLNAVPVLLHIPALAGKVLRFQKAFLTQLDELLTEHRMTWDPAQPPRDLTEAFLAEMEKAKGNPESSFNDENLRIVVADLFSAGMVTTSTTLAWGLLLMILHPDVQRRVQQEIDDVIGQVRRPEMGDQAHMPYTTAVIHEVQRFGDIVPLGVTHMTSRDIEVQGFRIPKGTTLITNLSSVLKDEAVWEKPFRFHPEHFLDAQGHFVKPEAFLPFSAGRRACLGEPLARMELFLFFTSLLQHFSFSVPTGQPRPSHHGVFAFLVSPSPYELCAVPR
Procedure: as §1, §2, §3

[6] = molecular target: CYP3A4 (Homo sapiens (Human), UniProt P08684); assay: Human liver microsomal CYP inhibition assay; assay type: in vitro ADME; conditions: human liver microsomes, 5-in-1 probe substrate
Sequence of CYP3A4 (P08684 whole entry): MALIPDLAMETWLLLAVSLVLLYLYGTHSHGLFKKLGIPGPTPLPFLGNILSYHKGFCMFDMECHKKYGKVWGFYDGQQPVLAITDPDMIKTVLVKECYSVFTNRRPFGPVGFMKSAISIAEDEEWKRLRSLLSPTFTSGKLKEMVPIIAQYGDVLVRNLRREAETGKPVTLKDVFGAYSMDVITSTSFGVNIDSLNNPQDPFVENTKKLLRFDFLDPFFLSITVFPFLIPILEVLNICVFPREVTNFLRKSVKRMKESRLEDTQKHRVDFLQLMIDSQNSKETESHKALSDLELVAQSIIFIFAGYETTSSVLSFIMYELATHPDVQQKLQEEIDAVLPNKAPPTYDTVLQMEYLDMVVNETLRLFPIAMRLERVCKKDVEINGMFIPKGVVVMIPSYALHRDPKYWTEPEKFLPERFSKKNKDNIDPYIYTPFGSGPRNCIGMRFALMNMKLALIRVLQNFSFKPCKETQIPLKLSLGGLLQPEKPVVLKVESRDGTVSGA
Procedure: as §1, §2, §3

[7] = molecular target: hERG potassium channel (Homo sapiens (Human), UniProt Q12809); assay: Inhibition test of hERG potassium ion channel (automatic patch clamp, CHO-hERG cells); assay type: cell-based
Sequence of hERG potassium channel (Q12809 whole entry): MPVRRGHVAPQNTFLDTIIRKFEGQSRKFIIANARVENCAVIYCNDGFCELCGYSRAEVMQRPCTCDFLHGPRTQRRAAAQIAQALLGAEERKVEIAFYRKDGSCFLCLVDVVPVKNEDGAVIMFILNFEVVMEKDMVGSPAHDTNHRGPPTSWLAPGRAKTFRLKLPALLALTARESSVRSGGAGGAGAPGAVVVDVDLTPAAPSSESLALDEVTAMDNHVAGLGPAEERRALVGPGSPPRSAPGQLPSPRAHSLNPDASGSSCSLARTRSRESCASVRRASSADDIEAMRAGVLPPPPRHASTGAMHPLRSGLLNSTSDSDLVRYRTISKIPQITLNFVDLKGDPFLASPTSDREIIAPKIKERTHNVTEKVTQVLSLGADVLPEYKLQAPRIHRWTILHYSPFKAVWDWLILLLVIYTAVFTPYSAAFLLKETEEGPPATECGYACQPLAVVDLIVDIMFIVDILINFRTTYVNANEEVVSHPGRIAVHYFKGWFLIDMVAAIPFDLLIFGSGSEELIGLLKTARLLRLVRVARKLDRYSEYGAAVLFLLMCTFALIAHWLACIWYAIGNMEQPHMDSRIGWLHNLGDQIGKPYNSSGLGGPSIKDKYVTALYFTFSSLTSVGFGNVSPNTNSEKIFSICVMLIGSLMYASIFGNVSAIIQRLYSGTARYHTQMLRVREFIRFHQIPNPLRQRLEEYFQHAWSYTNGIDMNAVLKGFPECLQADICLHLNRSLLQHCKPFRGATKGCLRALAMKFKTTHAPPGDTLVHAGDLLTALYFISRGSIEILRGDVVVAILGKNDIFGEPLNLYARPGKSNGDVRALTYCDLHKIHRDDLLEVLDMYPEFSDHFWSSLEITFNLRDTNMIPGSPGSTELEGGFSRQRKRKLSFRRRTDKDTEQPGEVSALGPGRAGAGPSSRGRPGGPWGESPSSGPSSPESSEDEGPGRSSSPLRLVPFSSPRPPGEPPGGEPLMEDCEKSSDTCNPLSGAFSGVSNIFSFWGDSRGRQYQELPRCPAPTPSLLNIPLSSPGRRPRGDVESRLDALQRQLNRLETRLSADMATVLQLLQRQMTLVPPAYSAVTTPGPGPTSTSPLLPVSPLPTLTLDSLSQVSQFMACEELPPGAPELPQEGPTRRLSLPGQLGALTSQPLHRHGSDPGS
Procedure: The effect of the to-be-tested compound on the potassium ion channel of hERG was detected by a fully automatic patch clamp method.
The cells stably expressing hERG potassium channel used in the experiment were obtained from CHO-hERE of Aviva Biosciences, and CHO-hERG was cultured in 5% CO2 at 37° C.
CHO-hERG cells prepared for the experiment were cultured for at least two days, and the cell density reached 75% or more. Prior to the start of the experiment, cells were digested with TrypLE and then resuspended in extracellular fluid to collect the cells.
The to-be-tested compound and the positive control Amitriptyline were dissolved in DMSO to a certain concentration of the stock solution, and then diluted according to different gradients, and finally added to the extracellular fluid in a certain ratio, and diluted to a concentration to be measured. Visual inspection was performed to see if there was any precipitation before the start of the experiment. Finally, the concentration of DMSO in the to-be-tested solution and the positive control Amitriptyline should not exceed 0.3%.
The clamping potential was kept at −80 mv, first a voltage stimulation of −50 mv was given for 80 ms to record the cell leakage current value, and then was depolarized to +20 mv to be maintained for 4800 ms, the channel of hERG was open, and then repolarized to −50 mv to be maintained 5000 ms, hERG tail current was led out and recorded, and finally, the voltage was returned to the clamping potential of −80 mv to be maintained for 3100 ms. The above voltage stimulation was repeated once every 15000 ms.
hERG QPatch^HTX experiment was performed at room temperature. A whole cell protocol, a voltage stimulation protocol and a compound detection protocol were established on the software of QPatch Assay Software 5.2 (Sophion Bioscience).
First, 30 repeated set voltage stimulations were performed, which was the baseline area for subsequent analysis, followed by the addition of 5 μl of extracellular fluid, repeated for three times. The concentration of each compound added in sequence was repeated three times in a volume of 5 μl. The cells were incubated for at least 5 min at each test concentration. During the entire recording process, the indicators needed to meet the data analysis acceptance criteria. If the standard was not met, the cells would not be included in the analysis scope, and the compounds would be retested. The above recording process was automatically operated by Qpatch analysis software. […]
In each complete current record, based on the percentage of peak current in the negative control, the percent inhibition of the concentration of each compound can be calculated. […]

IC50 [2]: 5 µM
IC50 [3]: 17 µM
IC50 [4]: 24 µM
IC50 [5]: 36 µM
IC50 [6]: > 50 µM
Structure (SMILES): Cl.Cn1nc(-c2ccc(OC/C(=C/F)CN)cc2)nc1C(F)F [WX126]
Effect on liver fibrosis (Sirius-Red staining) [1]: obvious improvement effect
Effect on liver injury (HE staining score) [1]: obvious improvement effect
IC50 ([7]; QPatch whole cell patch clamp, CHO-hERG, 0.24-30.00 μM): > 30 µM
Inhibition of hERG potassium current (in words) ([7]; conclusion statement): weak inhibition
